Patent publication US10551379B2, “Methods and compositions for improving detection and/or capture of a target entity” (PRESIDENT AND FELLOWS OF HARVARD COLLEGE, priority 2013, dated 2020)

Tests used:
FcMBL [1] = molecular target: T1, FcMBL (Homo sapiens, UniProt P11226); assay: Binding affinity (Kd) of medium affinity ligands for FcMBL; conditions: read-out: Kd (medium affinity ligand of FcMBL)
Description: (§1) Without wishing to be bound by theory, this reduced background can be related to the prevention of FcMBL low affinity binding to erythrocytes (or other endogenous components in blood) by the medium affinity sugar that in turn can be displaced by the higher affinity targets such as mannan, lipopolysaccharides (LPS), and/or a microbe or fragment thereof.

FcMBL [2] = molecular target: T1, FcMBL; assay: FcMBL ELISA capture in blood: background and haemocyte binding (FIGS. 3A-3B); conditions: for background of the FcMBL ELISA: ligand added to FcMBL prior to the capture of mannan in the presence of blood
Method: FIGS. 3A-3B are data graphs showing effects of adding a blocking agent (e.g., ˜10 mM glucose) on binding of a target entity (e.g., LPS) or an interfering agent (e.g., haemocytes) to a target-binding agent (e.g., FcMBL beads) in donor blood.
as §1

T1 sequence (P11226 with tags, fused parts or gaps limits assumed): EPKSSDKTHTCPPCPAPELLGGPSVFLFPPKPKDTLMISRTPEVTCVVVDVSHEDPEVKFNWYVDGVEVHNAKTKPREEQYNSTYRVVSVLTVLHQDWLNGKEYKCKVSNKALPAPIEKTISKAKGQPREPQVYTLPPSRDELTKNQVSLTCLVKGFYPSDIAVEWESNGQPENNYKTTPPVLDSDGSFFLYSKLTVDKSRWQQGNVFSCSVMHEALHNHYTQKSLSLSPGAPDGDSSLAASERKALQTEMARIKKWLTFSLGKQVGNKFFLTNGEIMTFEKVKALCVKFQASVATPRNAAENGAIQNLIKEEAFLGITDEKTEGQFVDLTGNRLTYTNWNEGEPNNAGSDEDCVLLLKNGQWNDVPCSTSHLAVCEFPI

Kd (FcMBL [1])	background of the FcMBL ELISA (FcMBL [2])	background by binding of erythrocytes or other endogenous blood components to FcMBL (FcMBL [2]; addition of a small amount of mannan)	Molecule
15 mM	decreases the background	–	OC[C@H]1O[C@H](O[C@H]2[C@H](O)[C@@H](O)C(O)O[C@@H]2CO)[C@H](O)[C@@H](O)[C@@H]1O (mixture of isomers) [maltose]
17 mM	decreases the background	–	CC(=O)N[C@H]1C(O)O[C@H](CO)[C@@H](O)[C@@H]1O[C@H](C)C(=O)O (some centres unmarked) [N-acetyl Muramic acid]
–	–	decrease the background	mannan
